Data taken from patent publication US10000471B2, “Pyrazole P38 map kinase inhibitors” (Respivert Limited, priority 2010, dated 2018).

Tests used:
[1] = test system: TNFα release in d-U937 cells; assay: LPS-induced TNFα release in d-U937 cells; assay type: cell-based, human; conditions: Homo sapiens, dU937, relative to 10 μg/mL BIRB796, read-out: LPS/TNFα REC50 d-U937
Outline: (§1)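 PMA-differentiated (100 ng/ml, 48–72 hr) U937 macrophage-type cells pre-incubated 2 hr with compound, then stimulated 4 hr with 0.1 μg/mL E. coli O111:B4 LPS; supernatant TNFα and IL-8 measured by sandwich ELISA. TNFα inhibition expressed relative to 10 μg/mL BIRB796, giving REC50; IL-8 inhibition versus vehicle, giving IC50.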

[2] = test system: ICAM-1 induction in BEAS2B cells; assay: Poly I:C-induced ICAM-1 induction in BEAS2B cells; assay type: cell-based, human; conditions: Homo sapiens, BEAS-2B, read-out: PolyIC/ICAM1 IC50 BEAS2B
Outline: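 Human bronchial epithelial BEAS2B cells were pre-incubated with compound for 2 hr, then transfected with 1 μg/mL poly I:C. After 18 hr, surface ICAM-1 was measured by cell-based ELISA (OD450-655) and normalized to crystal violet cell counts (OD595). IC50 came from inhibition versus vehicle across the concentration-response curve.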

[3] = test system: IL-8 release in d-U937 cells; assay: LPS-induced IL-8 release in d-U937 cells; assay type: cell-based, human; conditions: Homo sapiens, dU937
Outline: as §1

[4] = test system: Differentiated U937 cells; assay: Cell viability MTT assay; assay type: cell-based, human; conditions: negative = apparent increase in viability; for MTT Assay (Viability) 4 h d-U937, percentage loss of cell viability: 4 hr in 5% FCS; for MTT Assay (Viability) 24 h d-U937, percentage loss of cell viability: 24 h in 10% FCS
Outline: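 Differentiated U937 cells pre-incubated with compound either 4 hr in 5% FCS or 24 h in 10% FCS, then 1 hr MTT. Formazan dissolved in DMSO, absorbance at 550 nm. Percentage viability loss relative to 0.5% DMSO vehicle; apparent increases appear as negative percentages.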

[5] = target: T1, p38 MAPKγ (MAPK12) (Homo sapiens, UniProt P53778); assay: Enzyme inhibition assay (FRET, Z-LYTE), p38 MAPKγ; assay type: biochemical; conditions: read-out: Enzyme Inhibition IC50 p38γ
T1 construct: purchased Invitrogen
T1 sequence (P53778 1-367): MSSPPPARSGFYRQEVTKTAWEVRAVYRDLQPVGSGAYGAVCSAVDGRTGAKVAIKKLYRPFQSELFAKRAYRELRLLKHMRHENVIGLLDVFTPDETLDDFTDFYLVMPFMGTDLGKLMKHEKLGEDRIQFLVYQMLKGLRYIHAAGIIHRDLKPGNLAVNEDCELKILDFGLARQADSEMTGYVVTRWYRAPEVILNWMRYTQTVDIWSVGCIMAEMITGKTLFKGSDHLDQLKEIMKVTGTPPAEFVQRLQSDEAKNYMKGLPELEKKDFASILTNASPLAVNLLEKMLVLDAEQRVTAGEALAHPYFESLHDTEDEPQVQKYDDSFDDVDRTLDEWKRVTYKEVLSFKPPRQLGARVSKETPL
Outline: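 Recombinant phosphorylated p38 MAPKγ preincubated 2 h at RT with compound in HEPES buffer, then 2 μM FRET peptide and 100 μM ATP added for 1 h; protease development 1 h. Coumarin/fluorescein emission ratio gave phosphorylation; IC50 from concentration-response versus uninhibited control.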

[6] = target: T2, p38 MAPKα isoform (MAPK14) (Homo sapiens, UniProt Q16539); assay: Enzyme inhibition assay (FRET, Z-LYTE), p38 MAPKα via MAPKAP-K2 activation; assay type: biochemical; conditions: read-out: Enzyme Inhibition IC50 p38α
T2 construct: purchased Invitrogen
T2 sequence (Q16539 whole entry, canonical isoform): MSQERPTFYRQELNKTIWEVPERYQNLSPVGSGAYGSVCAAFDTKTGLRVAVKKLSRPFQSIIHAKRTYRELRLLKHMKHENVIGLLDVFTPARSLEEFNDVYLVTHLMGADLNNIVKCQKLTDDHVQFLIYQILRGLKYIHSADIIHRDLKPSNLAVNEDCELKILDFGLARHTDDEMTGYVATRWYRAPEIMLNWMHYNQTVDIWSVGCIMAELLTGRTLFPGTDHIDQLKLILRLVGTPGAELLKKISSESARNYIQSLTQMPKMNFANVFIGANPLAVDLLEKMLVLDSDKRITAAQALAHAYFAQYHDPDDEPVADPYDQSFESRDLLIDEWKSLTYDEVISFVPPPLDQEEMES
Outline: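 Recombinant p38 MAPKα was preincubated with compound for 2 h at RT. Its activity was measured indirectly through activation/phosphorylation of downstream MAPKAP-K2, with a Z-LYTE FRET peptide read-out (coumarin/fluorescein ratio) after a 1 h development step. IC50 came from concentration-response curves of percent inhibition versus an uninhibited control.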

[7] = test system: TNFα release in THP-1 cells; assay: LPS-induced TNFα release in THP-1 cells; assay type: cell-based, human; conditions: Homo sapiens
Outline: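 Human monocytic THP-1 cells stimulated with 3 μg/mL E. coli LPS for 4 hr; supernatant TNFα measured by sandwich ELISA. Inhibition at each concentration versus vehicle control, IC50 from concentration-response curve.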

| SMILES | EC50 [1] | IC50 [3] | IC50 [5] | IC50 [6] | IC50 [7] | IC50 [2] | MTT Assay (Viability) 4 h d-U937, percentage loss of cell viability [4] | MTT Assay (Viability) 24 h d-U937, percentage loss of cell viability [4] |
| --- | --- | --- | --- | --- | --- | --- | --- | --- |
| CN(C)CCNC(=O)Nc1cc(Oc2ccc(NC(=O)Nc3cc(C(C)(C)C)nn3-c3ccc(CO)cc3)c(Cl)c2Cl)ccn1 [Example 70, 1-(3-tert-butyl-1-(4-hydroxymethylphenyl)-1H-pyrazol-5-yl)-3-(2,3-dichloro-4-(2-(3-(2-(dimethylamino)ethyl)ureido)pyridin-4-yloxy)phenyl)urea] | 1.5 nM | 5.7 nM | 30.1 nM | 3.5 nM | 2.4 nM | 10.1 nM | 6.1% | 94.1% |
| COCC(=O)Nc1cc(Oc2ccc(NC(=O)Nc3cc(C(C)(C)C)nn3-c3ccc(C)cc3)cc2S(C)(=O)=O)ccn1 [Example 31, N-(4-(4-(3-(3-tert-butyl-1-p-tolyl-1H-pyrazol-5-yl)ureido)-2-methylsulfonylphenoxy)pyridin-2-yl)-2-methoxyacetamide] | 176 nM | 264 nM | 290 nM | 154 nM | 143 nM | 108 nM | 1.1% | 49.3% |
| Cc1ccc(-n2nc(C(C)(C)C)cc2NC(=O)Nc2ccc(Oc3ccnc(NC(=O)N4CCCC4)c3)c(Cl)c2Cl)cc1 [Example 72, N-(4-(4-(3-(3-tert-butyl-1-p-tolyl-1H-pyrazol-5-yl)ureido)-2,3-dichlorophenoxy)pyridin-2-yl) pyrrolidine-1-carboxamide] | 1.9 nM | 0.2 nM | 315 nM | 41.3 nM | 0.6 nM | 7.5 nM | −13.7% | 26.9% |
| COCC(=O)Nc1cc(Oc2ccc(NC(=O)Nc3cc(C(C)(C)C)nn3-c3ccc(C)cc3)c3ncccc23)ccn1 [Example 40, N-(4-(8-(3-(3-tert-butyl-1-p-tolyl-1H-pyrazol-5-yl)ureido)quinolin-5-yloxy)pyridin-2-yl)-2-methoxyacetamide] | 1.6 nM | 2 nM | 189 nM | 0.3 nM | 0.7 nM | 16.6 nM | −10.7% | 28.4% |
| CNC(=O)Nc1cc(Oc2ccc(NC(=O)Nc3cc(C(C)(C)C)nn3-c3ccc(OC)cc3)c3cccnc23)ccn1 [Example 58, 1-(3-tert-butyl-1-(4-methoxyphenyl)-1H-pyrazol-5-yl)-3-(8-(2-(3-methylureido)pyridin-4-yloxy)quinolin-5-yl)urea] | 2.1 nM | 3.3 nM | 176 nM | 34.1 nM | 2.2 nM | 13.2 nM | −12.4% | −29.0% |
| Cc1ccc(-n2nc(C(C)(C)C)cc2NC(=O)Nc2ccc(OCc3ccnc(NC(=O)N4CCCC4)c3)c(Cl)c2Cl)cc1 [Example 19, N-(4-((4-(3-(3-tert-Butyl-1-(p-tolyl)-1H-pyrazol-5-yl)ureido)-2,3-dichlorophenoxy)methyl)pyridin-2-yl)pyrrolidine-1-carboxamide] | 25.6 nM | 837 nM | 4370 nM | 18.5 nM | 12.3 nM | 23.7 nM | −13.5% | 6.9% |

The next compounds have a lower EC50 [1] than those just listed; values first:

| EC50 [1] | IC50 [3] | IC50 [5] | IC50 [6] | IC50 [7] | SMILES | IC50 [2] | MTT Assay (Viability) 4 h d-U937, percentage loss of cell viability [4] | MTT Assay (Viability) 24 h d-U937, percentage loss of cell viability [4] |
| --- | --- | --- | --- | --- | --- | --- | --- | --- |
| 1.1 nM | 5.1 nM | 22.4 nM | 6.3 nM | 0.4 nM | CC(C)(C)c1cc(NC(=O)Nc2ccc(Oc3ccnc(NC(=O)CN4CCOCC4)c3)c(Cl)c2Cl)n(-c2ccc(CO)cc2)n1 [Example 48, N-(4-(4-(3-(3-tert-butyl-1-(4-hydroxymethylphenyl)-1H-pyrazol-5-yl)ureido)-2,3-dichlorophenoxy)pyridin-2-yl)-2-morpholino-acetamide] | 2.2 nM | 12.5% | 84.1% |
| 1 nM | 3.1 nM | 200 nM | 50.1 nM | 4.8 nM | CC(C)(C)c1cc(NC(=O)Nc2ccc(Oc3ccnc(NC(=O)NC4CC4)c3)c(Cl)c2Cl)n(-c2ccc(CO)cc2)n1 [Example 55, 1-(4-(4-(3-(3-tert-butyl-1-(4-hydroxymethylphenyl)-1H-pyrazol-5-yl)ureido)-2,3-dichlorophenoxy)pyridin-2-yl)-3-cyclopropylurea] | 1.7 nM | −15.0% | 49.2% |
| 0.8 nM | 17.9 nM | 46.1 nM | 46.1 nM | 2.2 nM | COCC(=O)Nc1cc(Oc2ccc(NC(=O)Nc3cc(C(C)(C)C)nn3-c3ccc(C)cc3)cc2Cl)ccn1 [Example 29, N-(4-(4-(3-(3-tert-butyl-1-p-tolyl-1H-pyrazol-5-yl)ureido)-2-chlorophenoxy)pyridin-2-yl)-2-methoxyacetamide] | 77 nM | −0.7% | 30.8% |
| 0.5 nM | 3.3 nM | 111 nM | 18.8 nM | 0.6 nM | COCC(=O)Nc1cc(Oc2ccc(NC(=O)Nc3cc(C(C)(C)C)nn3-c3ccc(C)cc3)c(Cl)c2)ccn1 [Example 27, N-(4-(4-(3-(3-tert-butyl-1-p-tolyl-1H-pyrazol-5-yl)ureido)-3-chlorophenoxy)pyridin-2-yl)-2-methoxyacetamide] | 6.3 nM | 7.2% | 54.9% |
| 0.4 nM | 50.6 nM | 1360 nM | 18.7 nM | 1.4 nM | COCC(=O)Nc1cc(Oc2ccc(NC(=O)Nc3cc(C(C)(C)C)nn3-c3ccc(C)cc3)c3c2CCCC3)ccn1 [Example 5, N-(4-(4-(3-(3-tert-Butyl-1-p-tolyl-1H-pyrazol-5-yl)ureido)-5,6,7,8-tetrahydronaphthalen-1-yloxy)pyridin-2-yl)-2-methoxyacetamide] | 21.9 nM | −3.5% | 18.7% |
| 0.3 nM | 3.2 nM | 52.8 nM | 87.7 nM | 2.2 nM | CNC(=O)Nc1cc(Oc2ccc(NC(=O)Nc3cc(C(C)(C)C)nn3-c3ccc(CO)c(Cl)c3)c(Cl)c2Cl)ccn1 [Example 54, 1-(3-tert-butyl-1-(3-chloro-4-hydroxymethylphenyl)-1H-pyrazol-5-yl)-3-(2,3-dichloro-4-(2-(3-methylureido)pyridin-4-yloxy)phenyl)urea] | 2.5 nM | −34.9% | 71.2% |
| 0.2 nM | 10.3 nM | 137 nM | 18.2 nM | 1.4 nM | COc1ccc(-n2nc(C(C)(C)C)cc2NC(=O)Nc2ccc(Oc3ccnc(NC(=O)NCCN4CCOCC4)c3)c(Cl)c2Cl)cc1 [Example 68, 1-(4-(4-(3-(3-tert-butyl-1-(4-methoxyphenyl)-1H-pyrazol-5-yl)ureido)-2,3-dichlorophenoxy)pyridin-2-yl)-3-(2-morpholinoethyl)urea] | 3.3 nM | 11.3% | 73.3% |
